The text below walks through data of patent US20250195542A1, “METABOLIC DISEASE THERAPEUTIC AGENT OR PREVENTIVE AGENT” (Peking University, priority 2022, published 2025).

The test system of assay [1] is non-alcoholic steatohepatitis. The note with it: reported; cited from earlier work.
The target of assay [2] is T1, RDH10 (Mus musculus, UniProt Q8VCH7).
T1 construct: Take approximately 50 mg of liver tissue from C57BL/6J mice and add 1 mL of RIPA lysis buffer; from tissue; host or cells: mouse liver (C57BL/6J) lysate
T1 sequence (Q8VCH7 1-341): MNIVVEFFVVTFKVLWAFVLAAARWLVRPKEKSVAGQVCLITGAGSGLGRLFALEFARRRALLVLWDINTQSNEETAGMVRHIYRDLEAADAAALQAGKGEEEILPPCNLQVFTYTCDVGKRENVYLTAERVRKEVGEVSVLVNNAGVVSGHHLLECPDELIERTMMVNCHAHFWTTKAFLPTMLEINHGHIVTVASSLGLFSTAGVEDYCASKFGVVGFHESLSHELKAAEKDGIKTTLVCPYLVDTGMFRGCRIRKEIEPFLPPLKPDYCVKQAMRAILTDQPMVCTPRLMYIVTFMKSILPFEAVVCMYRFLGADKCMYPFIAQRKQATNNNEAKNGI
The assay is described as follows: Protein fishing (pull-down) with molecular probe and proteomics analysis. The assay is classed as binding, C57BL/6J mice. As for the experimental part: • 1. Preparation of Liver Protein: Take approximately 50 mg of liver tissue from C57BL/6J mice and add 1 mL of RIPA lysis buffer. Lyse the proteins on ice, then centrifuge at 12,000 rpm for 30 minutes at 4° C. Collect the supernatant, measure the protein concentration using BCA method, and dilute to 1 mg/mL with PBS. • 2. Sample Preparation: Prepare new 1.5 mL EP tubes and divide them into control group, drug group, and competitive inhibition group. Add 100 μL of PBS solution containing 40 μM Biotin to the control group, 100 μL of PBS solution containing 40 μM ACS-biotin (prepared in Example 1) to the drug group, and 100 μL of PBS solution containing 40 μM ACS-biotin and 400 μM ACS to the competitive inhibition group. Then, add 100 μL of liver protein lysate (1 mg/mL) to each tube and incubate on a shaking incubator at 4° C. for 2 hours. • 3. Washing Streptavidin Beads: Add 100 μL of streptavidin beads to new 1.5 mL EP tubes and centrifuge at 2,700 rpm for 1 minute. Discard the supernatant and wash the beads with 100 μL of PBS three times. • 4. Binding and Washing: Add the solutions from step 2 to the washed streptavidin beads. Incubate on a shaking incubator at 4° C. for 2 hours, then centrifuge at 2,700 rpm for 1 minute. Discard the supernatant and wash the beads with 100 μL of PBS three times. • 5. Protein Elution: Add 50 μL of PBS to the beads, mix well, and then add 5×SDS-PAGE sample buffer. Boil for 5 minutes and centrifuge at 13,000 rpm for 5 minutes. Store the supernatant at −20° C. for SDS-PAGE gel electrophoresis. • 6. Protein Detection: Stain with Coomassie Brilliant Blue and cut the gel for proteomics analysis.

Assay [3] concerns non-alcoholic steatohepatitis (NASH) in MCD mice. The assay can be described thus: Serum ALT in MCD mice (NASH model), Example 6. The assay is classed as in vivo, C57BL/6J mice. The note with it: oral 4 weeks, Antcin K 20 mg/kg, Antcin C 20 and 40 mg/kg, AK-GLU 26.6 mg/kg, better than obeticholic acid 10 mg/kg and DEA 20 mg/kg, FIG. 8. As for the experimental part: (§1) The MCD mouse model and drug administration method were the same as in Example 4. After the final treatment, the mice were sacrificed, and the liver tissue samples were fixed overnight in 4% paraformaldehyde, embedded in paraffin, and sectioned. The sections were stained with hematoxylin and eosin (H&E) according to the following procedure: immerse the sections in the following solutions sequentially: xylene (I) for 15 minutes, xylene (II) for 15 minutes, 50% xylene-absolute ethanol for 2 minutes, absolute ethanol (I) for 5 minutes, absolute ethanol (II) for 5 minutes, 80% ethanol for 5 minutes, distilled water for 5 minutes, hematoxylin staining solution for 5 minutes, rinse with running water for 5 minutes, 1% hydrochloric acid ethanol for 30 seconds, rinse with water for 30 seconds, wash with distilled water for 5 seconds, 0.5% eosin staining solution for 2 minutes, rinse with distilled water for 30 seconds, 80% ethanol for 30 seconds, 95% ethanol (I) for 1 minute, 95% ethanol (II) for 1 minute, absolute ethanol (I) for 3 minutes, absolute ethanol (II) for 3 minutes, xylene (I) for 3 minutes, xylene (II) for 3 minutes, and mount with neutral resin.
(§2) The treated groups were compared with untreated MCD mice (“MCD”) and normal mice (“Nor”). The drug administration doses were as follows: positive control obeticholic acid (OCA): 10 mg/kg; Antcin K (AK): 20 mg/kg; low-dose Antcin C (AC-L): 20 mg/kg; high-dose Antcin C (AC-H): 40 mg/kg; DEA: 20 mg/kg; AK-GLU: 26.6 mg/kg.
After the final treatment, the mice were fasted overnight, sacrificed, and blood was collected from the eye vein. The whole blood was allowed to stand for 2 hours, centrifuged at 6000 rpm for 10 minutes, and the serum was obtained.

Assay [4] has as its system FGF21. The assay is described as follows: FGF21 protein expression in the liver of MCD mice (Western blot). In kind it is in vivo, C57BL/6J mice. The conditions noted are these: oral 4 weeks, Antcin K 20 mg/kg, Antcin C 20 and 40 mg/kg, compared to DEA 20 mg/kg, FIG. 7. As for the experimental part: The modeling and procedures for MCD mice are as described in Example 4. Comparisons were made between the treated groups and untreated MCD mice (“MCD”) and normal mice (“Normal”). The dosing for each treatment group was as follows: positive drug obeticholic acid (“OCA”): 10 mg/kg; Antcin K (“AK”): 20 mg/kg; low-dose Antcin C (“AC-L”): 20 mg/kg; high-dose Antcin C (“AC-H”): 40 mg/kg; DEA: 20 mg/kg.
Liver tissue (15-20 mg) was homogenized in RIPA lysis buffer on ice, and then centrifuged at 13,000 rpm for 30 minutes at 4° C. The middle layer liquid was transferred to a new centrifuge tube and the protein concentration was measured using BCA method. For each sample, 20 μg of protein was separated by SDS-PAGE and then transferred to a PDVF membrane using Bio-Rad's standard wet transfer system at 200 mA for 60 minutes. Subsequently, the membrane was cut according to protein molecular weight and blocked with 0.5% BSA at room temperature for 60 minutes. The primary antibody was incubated at 4° C. for 14 hours, followed by washing with TBST at room temperature 3 times for 5 minutes each. The secondary antibody was incubated at room temperature for 1 hour, followed by washing with TBST at room temperature 3 times for 10 minutes each. ECL reagent was used for detection.
On the technique in general: Immunoblotting shows a protein as a band on a membrane.

Assay [5] concerns FGF21. The assay is described as follows: Serum FGF21 protein in MCD mice (ELISA). In kind it is in vivo, C57BL/6J mice. The conditions noted are these: oral 4 weeks, Antcin K 20 mg/kg, Antcin C 20 and 40 mg/kg, AK-GLU 26.6 mg/kg, compared to DEA, FIG. 10. How it is done:
The modeling and treatment of MCD mice were conducted as described in Example 4. The treated groups were compared with untreated MCD mice (“MCD”) and normal mice (“Nor”). The dosages for each treatment group were as follows: positive control obeticholic acid (“OCA”): 10 mg/kg; Antcin K (“AK”): 20 mg/kg; low-dose Antcin C (“AC-L”): 20 mg/kg; high-dose Antcin C (“AC-H”): 40 mg/kg; DEA: 20 mg/kg; AK-GLU: 26.6 mg/kg.
The serum sampling method from mice was the same as in Example 6. The FGF21 levels were tested using an ELISA kit (Beyotime), with the following procedure: The microplate was equilibrated at room temperature for 20 minutes. Then, 50 μL of serum samples or different concentrations of standards were added to each well. Next, 100 μL of HRP-conjugated detection antibody was added, and the plate was covered with a sealing film and incubated at 37° C. for 60 minutes. The liquid was discarded, and the plate was dried with absorbent paper. Each well was then washed with 350 μL of washing buffer, left for 1 minute, and the liquid was discarded and dried with absorbent paper. This washing step was repeated 5 times. Then, 50 μL of Substrate A and 50 μL of Substrate B were added to each well and incubated at 37° C. in the dark for 15 minutes. After that, 50 μL of stop solution was added to each well, and the absorbance at 450 nm was measured within 15 minutes. A standard curve was plotted with the absorbance of the standards on the vertical axis and the standard concentrations on the horizontal axis. The serum sample absorbance values were used to determine the FGF21 protein concentrations based on this standard curve.

In assay [6] the test system is non-alcoholic steatohepatitis (NASH) in MCD mice. The assay can be described thus: Pathological (H&E) staining of liver sections from MCD mice, Example 6. The assay is classed as in vivo, C57BL/6J mice. The conditions noted are these: oral 4 weeks, Antcin K 20 mg/kg, Antcin C 20 and 40 mg/kg, AK-GLU 26.6 mg/kg, better than obeticholic acid and DEA, FIG. 9. How it is done:
as §1, §2

Assay [7] concerns FGF21. The assay can be described thus: FGF21 gene expression in the liver of MCD mice (qPCR). The assay is classed as in vivo, C57BL/6J mice. The conditions noted are these: oral 4 weeks, Antcin C 20 and 40 mg/kg, AK-GLU 26.6 mg/kg, compared to DEA 20 mg/kg, FIG. 6. How it is done: Four-week-old male C57BL/6J mice were purchased from the Experimental Animal Center, Peking University Health Science Center. The mice were randomly divided into groups, with 10 mice per group. Methionine choline-deficient diet (MCD) was used to induce non-alcoholic steatohepatitis (NASH), forming the MCD model mice. The model mice were treated with an oral administration of drugs for 4 weeks. After the final treatment, the mice were fasted overnight, and then sacrificed. Serum and liver tissues were stored at −80° C., which could be compared with untreated MCD mice (“MCD”) and normal mice (“Nor” or “Normal”). The dosing amounts for each group were as follows: low-dose Antcin C (“AC-L”): 20 mg/kg; high-dose Antcin C (“AC-H”): 40 mg/kg; DEA: 20 mg/kg; AK-GLU: 26.6 mg/kg.
Total RNA Extraction: Liver tissue samples from the mice (10-20 mg) were cut into pieces and added to 1 ml of Tranzol. The mixture was placed on ice and homogenized, then transferred to an RNase-free and DNase-free EP tube. To each tube, 0.2 ml of chloroform was added, and the mixture was vigorously shaken for 15 seconds. After incubation at low temperature for 3 minutes, the mixture was centrifuged at 12000 rpm for 15 minutes at 4° C. The aqueous upper phase was transferred to a new EP tube, and an equal volume of isopropanol was added. […] RNA concentration was measured using a spectrophotometer with an A260/280 ratio. […]

Consider `C=C(CC[C@@H](C(=O)O)[C@H]1CC[C@@]2(C)C3=CC[C@H]4C(C)(C)[C@@H](O)CC[C@]4(C)C3=CC[C@]12C)C(C)C` [DEA], for which, in assay [1], the “effect in preventing and treating non-alcoholic steatohepatitis” value is given as “relatively weak”.
As to “25S-Antcin C—CO—NH-PEG2-biotin [ACS-biotin]”, the “log2 (ACS-biotin/ACS-biotin+ACS) for RDH10 protein” value in assay [2] (40 μM ACS-biotin vs 40 μM ACS-biotin + 400 μM ACS, FIG. 14C) was greater than 0. Further, the “log2 (ACS-biotin/Biotin) for RDH10” value in assay [2] (40 μM ACS-biotin vs 40 μM Biotin, mouse liver protein lysate, FIG. 14B) is given as greater than 6.
For `C=C(CC[C@@H](C)[C@H]1CC[C@H]2C3=C(C(=O)C[C@]12C)[C@@]1(C)CCC(=O)[C@@H](C)[C@@H]1C[C@@H]3O)C(C)C(=O)O` (stereo partly shown) [Antcin C], in assay [3], the “serum ALT levels” value is listed as “significantly reduced”. For the same molecule, in assay [4], the “FGF21 protein expression levels in liver” value is on record as “significantly upregulated”. The “serum FGF21 protein levels” value in assay [5] is reported as “significantly upregulated”. The “steatosis and ballooning in the liver” value in assay [6] is “significantly reduced”. Moreover, the “gene expression levels of FGF21 in vivo” value in assay [7] is reported as “significantly activated”.
In the case of `C=C(CC[C@@H](C)[C@H]1CC[C@H]2C3=C(C(=O)C[C@]12C)[C@@]1(C)CC[C@@H](O)[C@](C)(O)[C@@H]1C[C@@H]3O)C(C)C(=O)O` (stereo partly shown) [Antcin K], the “serum ALT levels” value in assay [3] is reported as “significantly reduced”. In assay [4], the “FGF21 protein expression levels in liver” value was “significantly upregulated”. The “serum FGF21 protein levels” value in assay [5] is “significantly upregulated”. Besides, in assay [6], the “steatosis and ballooning in the liver” value is reported as “significantly reduced”.
Take `C=C(CC[C@@H](C)[C@H]1CC[C@H]2C3=C(C(=O)C[C@]12C)[C@@]1(C)CC[C@@H](O)[C@](C)(O)[C@@H]1C[C@@H]3O[C@@H]1OC(CO)[C@@H](O)[C@H](O)C1O)C(C)C(=O)O` (stereo partly shown) [AK-GLU, Antcin K-7-O-glucoside]: the “serum ALT levels” value in assay [3] is “significantly reduced”. For the same molecule, the “serum FGF21 protein levels” value in assay [5] is on record as “significantly upregulated”. Besides, the “steatosis and ballooning in the liver” value in assay [6] is given as “significantly reduced”. Further, the “gene expression levels of FGF21 in vivo” value in assay [7] is listed as “significantly activated”.
